Source: publication PMC4114533, “Synthesis, Anti-tubulin and Antiproliferative SAR of Steroidomimetic Dihydroisoquinolinones” (Chemmedchem, 2014)
Where two headings read alike, the source gives them in different places.

Assays:
[1] = system: HUVECs within a matrix of human diploid fibroblasts of dermal origin; experiment: In vitro model of angiogenesis (tubule formation, co-culture); assay type: cell-based; details: 25 nM and 50 nM, VEGF-stimulated, quantified after 11 days
Experimental: Compounds 16 f and 17 f were also assayed for anti-angiogenic activity in an in vitro model of angiogenesis, wherein endothelial cells co-cultured in a matrix of human dermal fibroblasts are used to assess anti-angiogenic potential (Figure 2). When stimulated with VEGF the endothelial cells proliferate and migrate through the matrix to form tubule-like structures. The extent of tubule formation was quantified after 11 days as described elsewhere.[14] […] Quantification carried out by calculating total pixel length reflects the lack of tubule formation.
Cell lines: DU-145 (brain metastasis carcinoma of the prostate) and MDA MB-231 (metastatic pleural effusion of breast adenocarcinoma) established human cell lines were obtained from ATCC Global Bioresource Center. […] The effect of drugs on tubule formation was assessed using an angiogenesis kit (TCS-Cellworks).
Anti-angiogenic assays: HUVECs were cultured in a 24-well plate within a matrix of human diploid fibroblasts of dermal origin in optimised medium supplied by the company. […] The extent of tubule formation was then quantified, either manually by eye or using free software available through the National Institutes of Health website (NIH image [Mac version] from http://rsb.info.nih.gov/nih-image/download.html). […] After correcting for background the software counted the number of pixels representing tubules. […]

[2] = biological target: T1, Bovine brain tubulin (Bos taurus, UniProt P81947+Q6B856); experiment: Inhibition of [3H]colchicine binding to tubulin; details: mean ±SD; for inhibition at 5 µM: 5 μM inhibitor, 1.0 μM tubulin, 5.0 μM [3H]colchicine, read-out: CB [% inhib.] 5 μM inhibitor
T1 construct: from tissue; host or cells: bovine brain
Experimental: (§1) Tubulin assays: Bovine brain tubulin, prepared as described previously,[16] was used in studies presented here. Assembly IC50 values were determined as described in detail elsewhere.[17] Briefly, 1.0 mg mL^−1 (10 μM) tubulin was pre-incubated without GTP with varying compound concentrations for 15 min at 30 °C. Reaction mixtures were placed on ice, and GTP (final concentration, 0.4 mM) was added. The reaction mixtures were transferred to cuvettes, held at 0 °C in a recording spectrophotometer. Baselines were established at 0 °C, and increase in turbidity was followed for 20 min following a rapid (<30 s) jump to 30 °C. Compound concentrations required to decrease the turbidity increase by 50 % were determined. The method for measuring inhibition of the binding of [^3H]colchicine to tubulin was described in detail previously.[18] Reaction mixtures contained 0.1 mg mL^−1 (1.0 μM) tubulin, 5.0 μM [^3H]colchicine, and potential inhibitor at 5.0 μM. […] A minimum of two experiments were performed with each compound.

[3] = system: DU-145 human prostate cancer cells; experiment: Antiproliferative assay (WST-1, 96 h), DU-145; assay type: cell-based; details: for GI50: Homo sapiens, DU-145 cells, 96 h, WST-1, mean of three determinations; for fold more active than the 3′-methoxy derivatives: vs 3′-methoxy derivatives 16 b and 17 b
Experimental: (§2) Cell lines: DU-145 (brain metastasis carcinoma of the prostate) and MDA MB-231 (metastatic pleural effusion of breast adenocarcinoma) established human cell lines were obtained from ATCC Global Bioresource Center. Cells were maintained in a 5 % CO2 humidified atmosphere at 37 °C in RPMI-1640 medium, supplemented with 10 % fetal bovine serum, penicillin, (100 U mL^−1), and streptomycin (0.1 mg mL^−1). The effect of drugs on tubule formation was assessed using an angiogenesis kit (TCS-Cellworks).
(§3) Antiproliferative assays: DU-145 and MDA MB-231 cells were seeded into 96-well microtitre plates (5000 cells per well) and treated with compound (10^−9–10^−4 M) or with vehicle control. At 96 h post-treatment, live cell counts were determined by WST-1 cell proliferation assay (Roche, Penzberg, Germany), as per the manufacturer’s instructions. Viability results were expressed as a percentage of mean control values resulting in the calculation of the 50 % growth inhibition (GI50). All experiments were performed in triplicate.

[4] = system: MDA MB-231 human breast cancer cells; experiment: Antiproliferative assay (WST-1, 96 h), MDA MB-231; assay type: cell-based; details: MDA MB-231 cells, WST-1, mean of three determinations
Experimental: as §2, §3

[5] = system: Bovine brain tubulin; experiment: Tubulin polymerisation (assembly) assay; assay type: biochemical; details: 10 μM tubulin, mean ±SD of at least two determinations; read-out: TP IC50 (tubulin polymerisation)
Experimental: as §1

[6] = system: Leukemia CCRF-CEM; experiment: NCI 60-cell line assay, CCRF-CEM; assay type: cell-based; details: Homo sapiens, NCI-60 panel, mean of three determinations
Experimental: (§4) Data from seven cell lines are presented along with the mean activity across the whole panel (MGM value). Screening was conducted at concentrations ranging from 10 nM upwards, with maximal activity (where a 50 % growth inhibition was obtained in all cell lines at a concentration of 10 nM) being indicated by an MGM value of 10 nM.

[7] = system: Lung HOP-62; experiment: NCI 60-cell line assay, HOP-62; assay type: cell-based; details: Homo sapiens, NCI-60 panel, mean of three determinations
Experimental: as §4

[8] = system: Ovarian OVCAR-3; experiment: NCI 60-cell line assay, OVCAR-3; assay type: cell-based; details: Homo sapiens, NCI-60 panel, lowest concentration screened 10 nM
Experimental: as §4

[9] = system: Renal SN12-C; experiment: NCI 60-cell line assay, SN12-C; assay type: cell-based; details: Homo sapiens, SN12C; NCI-60 panel, mean of three determinations
Experimental: as §4

[10] = system: NCI 60-cell line panel; experiment: NCI 60-cell line assay, mean across whole panel (MGM); assay type: cell-based; details: NCI-60 panel
Experimental: as §4

[11] = system: CNS SF-539; experiment: NCI 60-cell line assay, SF-539; assay type: cell-based; details: CNSSF-539; NCI-60 panel, mean of three determinations
Experimental: as §4

[12] = system: Colon HCT-116; experiment: NCI 60-cell line assay, HCT-116; assay type: cell-based; details: Homo sapiens, NCI-60 panel, mean of three determinations
Experimental: as §4

[13] = system: Melanoma UACC-62; experiment: NCI 60-cell line assay, UACC-62; assay type: cell-based; details: Homo sapiens, NCI-60 panel, lowest concentration screened 10 nM
Experimental: as §4

[14] = biological target: carbonic anhydrase; experiment: Carbonic anhydrase inhibition; assay type: biochemical
[15] = system: DU-145 human prostate cancer cells; parameters: method as in PMID 24124095; details: DU-145 cells; data taken from the literature ref 8; cited from earlier work
[16] = system: MDA MB-231 human breast cancer cells; parameters: method as in PMID 24124095; details: MDA MB-231 cells; data taken from the literature ref 8; cited from earlier work
[17] = parameters: method as in PMID 22247790, PMID 24124095; details: THIQ series, cell line not printed ref 7, 8; cited from earlier work

T1 sequence (Q6B856 whole entry): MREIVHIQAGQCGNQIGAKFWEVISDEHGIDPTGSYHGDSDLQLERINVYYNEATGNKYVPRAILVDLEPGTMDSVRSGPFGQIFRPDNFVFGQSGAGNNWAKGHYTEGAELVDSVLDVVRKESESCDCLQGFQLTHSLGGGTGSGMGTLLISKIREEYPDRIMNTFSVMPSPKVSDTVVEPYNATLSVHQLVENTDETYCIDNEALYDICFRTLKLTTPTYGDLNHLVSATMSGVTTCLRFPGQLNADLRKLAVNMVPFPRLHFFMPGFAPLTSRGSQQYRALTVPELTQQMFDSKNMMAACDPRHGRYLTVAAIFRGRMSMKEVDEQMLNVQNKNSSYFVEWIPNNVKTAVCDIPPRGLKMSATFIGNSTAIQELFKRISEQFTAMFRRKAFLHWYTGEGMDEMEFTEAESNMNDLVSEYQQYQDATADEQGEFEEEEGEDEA
T1 sequence (P81947 whole entry): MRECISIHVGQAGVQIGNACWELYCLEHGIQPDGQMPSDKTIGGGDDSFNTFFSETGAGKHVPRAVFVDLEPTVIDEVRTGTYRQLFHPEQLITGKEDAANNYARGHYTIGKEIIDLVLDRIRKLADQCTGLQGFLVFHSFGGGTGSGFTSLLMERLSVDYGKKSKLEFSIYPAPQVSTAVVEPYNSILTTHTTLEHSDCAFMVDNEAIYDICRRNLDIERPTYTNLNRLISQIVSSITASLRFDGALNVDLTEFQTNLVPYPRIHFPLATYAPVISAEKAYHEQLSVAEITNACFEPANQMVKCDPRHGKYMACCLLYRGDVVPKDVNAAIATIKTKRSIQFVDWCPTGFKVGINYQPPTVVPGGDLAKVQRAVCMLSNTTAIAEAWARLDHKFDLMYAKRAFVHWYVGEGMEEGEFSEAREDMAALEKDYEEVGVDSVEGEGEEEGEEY

SMILES	inhibition at 5 µM [2] [%]	GI50 [3] [nM]	GI50 [4] [nM]	IC50 [5] [nM]	formation of tubule-like structures [1]	fold more active than the 3′-methoxy derivatives [3] [fold]	GI50 [15] [nM]	GI50 [16] [nM]	other results
COc1cc2c(cc1O)CCN(C(=O)c1cc(OC)c(OC)c(OC)c1)C2 [18 c]	–	–	–	–	–	–	921	733	–
COc1cc2c(cc1OS(N)(=O)=O)CCN(C(=O)c1cc(OC)c(OC)c(OC)c1)C2 [19 c]	–	–	–	–	–	–	1810	1720	–
COc1cccc(CN2CCc3cc(OS(N)(=O)=O)c(OC)cc3C2)c1 [compound 2]	–	–	–	–	–	–	–	–	GI50 [17]: 2100 nM

The next lines start with results.

inhibition at 5 µM [2] [%]	GI50 [3] [nM]	GI50 [4] [nM]	IC50 [5] [nM]	SMILES	formation of tubule-like structures [1]	fold more active than the 3′-methoxy derivatives [3] [fold]	GI50 [15] [nM]	GI50 [16] [nM]	other results
81 ± 0.7	215	161	1500 ± 100	COc1cc(OC)cc(C(=O)N2CCc3cc(O)c(OC)cc3C2=O)c1 [16 f, 6-Hydroxy-2-(3,5-dimethoxybenzoyl)-7-methoxy-3,4-dihydroisoquinolin-1(2H)-one]	almost completely inhibits	> 10	–	–	–
83 ± 2	51	71	1300 ± 100	COc1cc2c(cc1O)CCN(C(=O)c1cc(OC)c(OC)c(OC)c1)C2=O [16 g, 6-Hydroxy-7-methoxy-2-(3,4,5-trimethoxybenzoyl)-3,4-dihydroisoquinolin-1(2H)-one]	–	–	–	–	GI50 [6]: 17.1 nM; GI50 [7]: 29.5 nM; GI50 [8]: < 10 nM; GI50 [9]: 56 nM; mean activity in the NCI 60-cell line assay [10]: 33 nM; MGM (mean concentration that caused 50 % growth inhibition in all 60 cell lines) ([10]; all 60 cell lines): 0.033 µM; GI50 [11]: 10.2 nM; GI50 [12]: 21.6 nM; GI50 [13]: < 10 nM
89 ± 0.1	179	118	1300 ± 10	COc1cc(OC)cc(C(=O)N2CCc3cc(OS(N)(=O)=O)c(OC)cc3C2=O)c1 [17 f, 2-(3,5-Dimethoxybenzoyl)-7-methoxy-6-sulfamoyloxy-3,4-dihydroisoquinolin-1(2H)-one]	almost completely inhibits	> 10	–	–	IC50 [14]: 890 nM; inhibition at 1 µM ([2]; 1 μM inhibitor, read-out: CB [% inhib.] 1 μM inhibitor): 65 ± 3%
